# From ChEMBL document CHEMBL1909046, “DrugMatrix in vitro pharmacology data”
# What was measured:
# [1] = target: Beta-1 adrenergic receptor (Homo sapiens, UniProt P08588); experiment: DRUGMATRIX: Adrenergic beta1 radioligand binding (ligand: [125I] Cyanopindolol); assay type: cell membranes, CHO-K1, Membrane; conditions: Not Active = under 50% inhibition at 10 µM
# [2] = target: Epidermal growth factor receptor (Homo sapiens, UniProt P00533); experiment: DRUGMATRIX: Protein Tyrosine Kinase, EGF Receptor enzyme inhibition (substrate: Poly(Glu:Tyr)); assay type: cell-based, Insect cells; conditions: Not Active = under 50% inhibition at 10 µM
# Epidermal growth factor receptor, sequence (P00533 whole entry): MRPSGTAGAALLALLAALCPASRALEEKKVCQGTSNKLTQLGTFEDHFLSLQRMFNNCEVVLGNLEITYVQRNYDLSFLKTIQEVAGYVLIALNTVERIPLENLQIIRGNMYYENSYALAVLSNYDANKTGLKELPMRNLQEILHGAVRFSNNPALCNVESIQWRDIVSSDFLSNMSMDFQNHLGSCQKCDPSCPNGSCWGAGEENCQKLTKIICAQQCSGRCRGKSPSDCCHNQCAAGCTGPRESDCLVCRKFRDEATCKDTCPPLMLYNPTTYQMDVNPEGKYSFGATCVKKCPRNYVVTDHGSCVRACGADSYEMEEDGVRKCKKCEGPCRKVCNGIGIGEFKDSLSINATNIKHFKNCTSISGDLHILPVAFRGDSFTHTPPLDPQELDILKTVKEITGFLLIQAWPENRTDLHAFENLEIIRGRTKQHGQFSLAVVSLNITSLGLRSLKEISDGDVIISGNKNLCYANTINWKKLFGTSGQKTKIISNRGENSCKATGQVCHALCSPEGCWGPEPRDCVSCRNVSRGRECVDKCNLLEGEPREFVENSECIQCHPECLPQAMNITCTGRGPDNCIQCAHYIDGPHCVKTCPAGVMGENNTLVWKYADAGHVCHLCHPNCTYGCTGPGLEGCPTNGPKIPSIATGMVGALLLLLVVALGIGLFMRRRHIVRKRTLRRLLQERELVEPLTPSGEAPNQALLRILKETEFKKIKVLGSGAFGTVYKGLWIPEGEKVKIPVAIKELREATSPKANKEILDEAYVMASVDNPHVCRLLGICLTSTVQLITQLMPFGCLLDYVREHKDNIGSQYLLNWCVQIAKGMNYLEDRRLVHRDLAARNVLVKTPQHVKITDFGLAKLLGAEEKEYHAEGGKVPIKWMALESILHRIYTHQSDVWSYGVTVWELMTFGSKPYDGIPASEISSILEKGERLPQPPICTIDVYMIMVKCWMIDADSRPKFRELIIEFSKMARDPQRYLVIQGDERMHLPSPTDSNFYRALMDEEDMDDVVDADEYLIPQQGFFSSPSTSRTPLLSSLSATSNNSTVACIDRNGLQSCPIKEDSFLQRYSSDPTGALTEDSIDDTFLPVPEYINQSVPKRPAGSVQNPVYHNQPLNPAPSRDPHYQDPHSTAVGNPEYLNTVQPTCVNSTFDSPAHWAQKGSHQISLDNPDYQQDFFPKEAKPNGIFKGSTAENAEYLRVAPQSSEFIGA
# [3] = target: Cytochrome P450 3A4 (Homo sapiens, UniProt P08684); conditions: bti-tn-5b1-4; also: in other assays of this panel Not Active means under 50% inhibition at 10 µM
# Cytochrome P450 3A4, sequence (P08684 whole entry): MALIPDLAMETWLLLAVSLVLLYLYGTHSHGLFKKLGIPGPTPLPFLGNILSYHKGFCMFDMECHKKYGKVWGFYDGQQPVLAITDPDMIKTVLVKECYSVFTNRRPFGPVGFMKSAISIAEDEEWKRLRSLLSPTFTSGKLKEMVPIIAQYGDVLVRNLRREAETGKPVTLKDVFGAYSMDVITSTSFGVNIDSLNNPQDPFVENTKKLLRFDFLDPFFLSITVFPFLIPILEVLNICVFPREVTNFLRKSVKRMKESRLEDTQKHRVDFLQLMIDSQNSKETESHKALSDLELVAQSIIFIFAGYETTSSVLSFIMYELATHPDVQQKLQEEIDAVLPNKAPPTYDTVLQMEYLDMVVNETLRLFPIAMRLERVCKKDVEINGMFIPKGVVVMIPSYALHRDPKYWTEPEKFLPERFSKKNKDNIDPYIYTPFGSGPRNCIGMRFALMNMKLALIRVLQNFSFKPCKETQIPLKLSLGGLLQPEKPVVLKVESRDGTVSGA
# [4] = DRUGMATRIX: Sodium/nucleoside co-transporter radioligand binding (ligand: nitrobenzylthioinosine); assay type: cell membranes, Cavia porcellus, Dunkin-Hartley, Cerebral cortex, Membrane; conditions: Not Active = under 50% inhibition at 10 µM
# [5] = DRUGMATRIX: Serotonin (5-Hydroxytryptamine) 5-HT3 radioligand binding (ligand: [3H] GR-65630); assay type: cell membranes, Membrane; conditions: hek293; Not Active = under 50% inhibition at 10 µM
# [6] = target: Mitogen-activated protein kinase 14 (Homo sapiens, UniProt Q16539); set-up: species or system Escherichia coli;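 also: inhibition of p38alpha enzyme activity in a biochemical kinase assay, with myelin basic protein serving as substrate; in other assays of this panel Not Active means under 50% inhibition at 10 µM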
# Mitogen-activated protein kinase 14, sequence (Q16539 whole entry): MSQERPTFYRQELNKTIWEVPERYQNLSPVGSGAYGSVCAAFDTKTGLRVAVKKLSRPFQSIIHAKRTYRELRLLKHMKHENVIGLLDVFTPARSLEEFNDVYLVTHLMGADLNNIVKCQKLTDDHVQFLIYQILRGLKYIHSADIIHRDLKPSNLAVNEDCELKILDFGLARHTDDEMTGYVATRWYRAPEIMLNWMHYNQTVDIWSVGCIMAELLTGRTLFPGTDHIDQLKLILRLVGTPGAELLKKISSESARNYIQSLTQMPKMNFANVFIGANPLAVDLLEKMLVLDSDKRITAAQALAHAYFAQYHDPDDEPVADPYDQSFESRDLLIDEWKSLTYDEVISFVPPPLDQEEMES
# [7] = DRUGMATRIX: Phorbol Ester radioligand binding (ligand: [3H] PDBu); assay type: cell membranes, Mus musculus, ICR, Brain, Membrane; conditions: Not Active = under 50% inhibition at 10 µM
# Beta-1 adrenergic receptor, sequence (P08588 whole entry): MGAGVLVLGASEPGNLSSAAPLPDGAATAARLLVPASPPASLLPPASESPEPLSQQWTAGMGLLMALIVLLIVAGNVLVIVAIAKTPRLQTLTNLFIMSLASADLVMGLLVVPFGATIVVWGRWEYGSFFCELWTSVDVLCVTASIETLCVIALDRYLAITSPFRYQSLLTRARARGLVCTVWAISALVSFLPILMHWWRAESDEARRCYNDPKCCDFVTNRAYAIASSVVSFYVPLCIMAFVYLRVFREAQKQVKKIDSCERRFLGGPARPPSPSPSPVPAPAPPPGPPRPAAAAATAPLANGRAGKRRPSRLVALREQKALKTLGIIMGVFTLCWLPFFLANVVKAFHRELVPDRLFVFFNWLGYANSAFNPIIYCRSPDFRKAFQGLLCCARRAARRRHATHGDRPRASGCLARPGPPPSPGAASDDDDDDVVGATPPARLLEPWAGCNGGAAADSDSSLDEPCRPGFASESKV
Compound,IC50 ([1]; cho-k1),IC50 ([2]; insect cells),IC50 [3],Ki [3],IC50 [4],Ki [4],IC50 [5],Ki [5],IC50 [6],IC50 [7],Ki [7],IC50 ([1]; read-out: IC50) [µM],Ki ([1]; read-out: Ki) [µM],IC50 ([2]; read-out: IC50) [µM]
Cc1c(N(C)CS(=O)(=O)[O-])c(=O)n(-c2ccccc2)n1C.[Na+] [DIPYRONE SODIUM],Not Active,Not Active,Not Active,Not Active,Not Active,Not Active,Not Active,Not Active,Not Active,Not Active,Not Active,–,–,–
CC(CCc1ccc(O)cc1)NCCc1ccc(O)c(O)c1 (stereo unspecified) [DOBUTAMINE],–,–,Not Active,Not Active,Not Active,Not Active,Not Active,Not Active,Not Active,Not Active,Not Active,1.94,1.12,5.55
CCn1cc(C(=O)O)c(=O)c2cc(F)c(N3CCNCC3)nc21 [ENOXACIN],Not Active,Not Active,Not Active,Not Active,Not Active,Not Active,Not Active,Not Active,Not Active,Not Active,Not Active,–,–,–
CCC(=O)O[C@H]1[C@H](O[C@@H]2[C@@H](C)[C@H](O[C@H]3C[C@@](C)(OC)[C@@H](O)[C@H](C)O3)[C@@H](C)C(=O)O[C@H](CC)[C@@](C)(O)[C@H](O)[C@@H](C)C(=O)[C@H](C)C[C@@]2(C)O)O[C@H](C)C[C@@H]1N(C)C [ERYTHROMYCIN PROPIONATE],Not Active,Not Active,Not Active,Not Active,Not Active,Not Active,Not Active,Not Active,Not Active,Not Active,Not Active,–,–,–
C=C(CC)C(=O)c1ccc(OCC(=O)O)c(Cl)c1Cl [ETHACRYNIC ACID],Not Active,Not Active,Not Active,Not Active,Not Active,Not Active,Not Active,Not Active,Not Active,Not Active,Not Active,–,–,–
C#C[C@]1(O)CC[C@H]2[C@@H]3CCc4cc(O)ccc4[C@H]3CC[C@@]21C [ETHINYL ESTRADIOL],Not Active,Not Active,Not Active,Not Active,Not Active,Not Active,Not Active,Not Active,Not Active,Not Active,Not Active,–,–,–
OCCO [ETHYLENE GLYCOL],Not Active,Not Active,Not Active,Not Active,Not Active,Not Active,Not Active,Not Active,Not Active,Not Active,Not Active,–,–,–
CC(=O)OCC(CCn1cnc2cnc(N)nc21)COC(C)=O [FAMCICLOVIR],Not Active,Not Active,Not Active,Not Active,Not Active,Not Active,Not Active,Not Active,Not Active,Not Active,Not Active,–,–,–
O=C(O)Cc1ccc(-c2ccccc2)cc1 [FELBINAC],Not Active,Not Active,Not Active,Not Active,Not Active,Not Active,Not Active,Not Active,Not Active,Not Active,Not Active,–,–,–
CC(C(=O)O)c1ccc(-c2ccccc2)c(F)c1 (stereo unspecified) [FLURBIPROFEN],Not Active,Not Active,Not Active,Not Active,Not Active,Not Active,Not Active,Not Active,Not Active,Not Active,Not Active,–,–,–
NC[C@@H]1O[C@H](O[C@H]2[C@@H](O)[C@H](O[C@@H]3[C@@H](O)[C@H](N)C[C@H](N)[C@H]3O[C@H]3O[C@H](CN)[C@@H](O)[C@H](O)[C@H]3N)O[C@@H]2CO)[C@H](N)[C@@H](O)[C@@H]1O [FRAMYCETIN],Not Active,Not Active,Not Active,Not Active,Not Active,Not Active,Not Active,Not Active,Not Active,Not Active,Not Active,–,–,–
C[C@H]([C@](O)(Cn1cncn1)c1ccc(F)cc1F)S(C)(=O)=O [GENACONAZOLE],Not Active,Not Active,Not Active,Not Active,Not Active,Not Active,Not Active,Not Active,Not Active,Not Active,Not Active,–,–,–
Cc1c(F)c(N2CCNC(C)C2)cc2c1c(=O)c(C(=O)O)cn2C1CC1 (stereo unspecified) [GREPAFLOXACIN],Not Active,Not Active,Not Active,Not Active,Not Active,Not Active,Not Active,Not Active,Not Active,Not Active,Not Active,–,–,–
N=C(N)N/N=C/c1c(Cl)cccc1Cl [GUANABENZ],Not Active,Not Active,Not Active,Not Active,Not Active,Not Active,Not Active,Not Active,Not Active,Not Active,Not Active,–,–,–
C[C@]12CCC(=O)C=C1CC[C@@H]1[C@@H]2[C@@H](O)C[C@@]2(C)[C@H]1CC[C@]2(O)C(=O)CO [HYDROCORTISONE],Not Active,Not Active,Not Active,Not Active,Not Active,Not Active,Not Active,Not Active,Not Active,Not Active,Not Active,–,–,–
CC(C(=O)O)c1ccc(CC2CCCC2=O)cc1 (stereo unspecified) [LOXOPROFEN],Not Active,Not Active,Not Active,Not Active,Not Active,Not Active,Not Active,Not Active,Not Active,Not Active,Not Active,–,–,–
Cc1cccc(Nc2ccccc2C(=O)O)c1C [MEFENAMIC ACID],Not Active,Not Active,Not Active,Not Active,Not Active,Not Active,Not Active,Not Active,Not Active,Not Active,Not Active,–,–,–
CC(=O)O[C@]1(C(C)=O)CC[C@H]2[C@@H]3C=C(C)C4=CC(=O)CC[C@]4(C)[C@H]3CC[C@@]21C [MEGESTROL ACETATE],Not Active,Not Active,Not Active,Not Active,Not Active,Not Active,Not Active,Not Active,Not Active,Not Active,Not Active,–,–,–
COc1ccccc1OCC(O)COC(N)=O (stereo unspecified) [METHOCARBAMOL],Not Active,Not Active,Not Active,Not Active,Not Active,Not Active,Not Active,Not Active,Not Active,Not Active,Not Active,–,–,–
CN(Cc1cnc2nc(N)nc(N)c2n1)c1ccc(C(=O)N[C@@H](CCC(=O)O)C(=O)O)cc1 [METHOTREXATE],Not Active,Not Active,Not Active,Not Active,Not Active,Not Active,Not Active,Not Active,Not Active,Not Active,Not Active,–,–,–
COC(=O)c1ccccc1O [METHYL SALICYLATE],Not Active,Not Active,Not Active,Not Active,Not Active,Not Active,Not Active,Not Active,Not Active,Not Active,Not Active,–,–,–
COc1ccc2cc(CCC(C)=O)ccc2c1 [NABUMETONE],Not Active,Not Active,Not Active,Not Active,Not Active,Not Active,Not Active,Not Active,Not Active,Not Active,Not Active,–,–,–
O=C(O)c1cccnc1 [NIACIN],Not Active,Not Active,Not Active,Not Active,Not Active,Not Active,Not Active,Not Active,Not Active,Not Active,Not Active,–,–,–
CNC(=C[N+](=O)[O-])NCCSCc1csc(CN(C)C)n1 [NIZATIDINE],Not Active,Not Active,Not Active,Not Active,Not Active,Not Active,Not Active,Not Active,Not Active,Not Active,Not Active,–,–,–
C[C@]12C/C(=C/O)C(=O)C[C@@H]1CC[C@@H]1[C@@H]2CC[C@@]2(C)[C@H]1CC[C@]2(C)O [OXYMETHOLONE],Not Active,Not Active,Not Active,Not Active,Not Active,Not Active,Not Active,Not Active,Not Active,Not Active,Not Active,–,–,–
